The values that follow come from paper PMC8146637, “Enhanced Bioavailability and Efficacy of Silymarin Solid Dispersion in Rats with Acetaminophen-Induced Hepatotoxicity” (Pharmaceutics, 2021).

The nature of data set [1]: Liver distribution of silybin after repeated oral administration in APAP-induced hepatotoxic rats. As to conditions: rat, in vivo. The procedure:
To investigate the liver distribution of silymarin and silymarin-SD, blood samples were collected from the abdominal artery at 0.5, 1, 2, 4, and 24 h after the repeated oral administration of silymarin (20 mg/kg as silybin, n = 20) or silymarin-SD (20 mg/kg as silybin, n = 20), according to the dosing schedule. Immediately after blood sampling, the liver was excised, rinsed in saline, and homogenized in nine volumes of saline, using a tissue homogenizer. Aliquots (50 μL) of 10% liver homogenate samples were stored at −80 °C for silybin assay.
Silybin concentrations in plasma and 10% liver homogenate samples were analyzed. Samples (100 μL) were added to 300 μL IS (naringenin, 20 ng/mL in acetonitrile) and the mixture was vigorously mixed for 10 min, followed by centrifugation at 16,000× g for 5 min. Supernatant aliquots (5 μL) were directly injected into an LC-MS/MS system.

The conditions of data set [2]: in vivo; cited from earlier work.
The subject of a further data set is rat jejunal segments. Briefly: Lucifer yellow permeability (intestinal integrity), Ussing chamber. It counts as in vitro ADME. As for the experimental part:
Segments were mounted on a tissue holder of a […] […] Lucifer yellow fluorescence in 200 μL sample aliquots was measured using a fluorescence spectrophotometer (Infinite 200 PRO, Tecan, Switzerland) at an excitation wavelength of 425 nm and emission wavelength of 535 nm.

Data set [3] can be described thus: Effect of various excipients on silymarin solubility. The format is physicochemical. The procedure:
The effect of various excipients on the silymarin solubility was measured. […] Mixtures were centrifuged at 16,000× g for 10 min and supernatants filtered through a membrane filter (pore size; 0.22 μm). Filtrates were diluted in 85% acetonitrile and silybin concentrations analyzed using a liquid chromatography-tandem mass spectrometry (LC-MS/MS) system.

Data set [4] can be described thus: Intestinal permeability of silybin, Ussing chamber. As to conditions: male, Wistar, rat, pH 7.4.
Experimental: Male Wistar rats weighing 225–270 g (eight weeks old, n = 28) were purchased from Samtako Co. (Osan, Korea). Rats were housed in a 12-h light/dark cycle, and food and water were supplied ad libitum for one week prior to animal studies. […] Rats were fasted for 16 h, but had free access to water before study commencement. […] A proximal jejunum section (approximately 10 cm) was excised and washed in prewarmed HBSS (pH 7.4). Segments were mounted on a tissue holder of a Navicyte Easy Mount Ussing Chamber (Warner Instruments, Holliston, MA, USA), with a surface area of 0.76 cm², and acclimated in HBSS for 15 min with continuous oxygenation (95% O₂/5% CO₂ gas). […]
To investigate whether efflux transporters were involved in this process, an apical to basal (A to B) and a basal to apical (B to A) transport of 20 μM silybin in the presence of representative inhibitors of P-gp, MRPs, and BCRPs such as 20 μM cyclosporine A (CsA), 100 μM MK-571, and 20 μM fumitremorgin C (FTC), respectively, were measured in a proximal jejunum section from control rats (n = 4) [45, 46]. The effects of TPGS (0.01–1 mg/mL) on silybin permeability were also measured in a proximal jejunum section from control rats (n = 4) using the above method. […]

For Silymarin, the “time course of liver silybin concentration” value in data set [1] is listed as “decreased sharply for 4 h”. In addition, in data set [2], the bioavailability was 23–47%. Moreover, the “Papp,AB of Lucifer yellow in the presence of silymarin or silymarin-SD” value with rat jejunal segments is “not different”.

In the case of Tween 80, the “increase in silymarin solubility in the presence of excipient” value (“increase in silymarin solubility” for short) in data set [3] is recorded as 2~3 fold.

As for hydroxypropyl cellulose [HPC], the “increase in silymarin solubility” value in data set [3] was “less than 1.5 fold”.

On to `COc1cc(C2Oc3cc([C@H]4Oc5cc(O)cc(O)c5C(=O)[C@@H]4O)ccc3OC2CO)ccc1O` (stereo partly shown) [silybin, Silybin], for which the efflux ratio (usually the permeability from basolateral to apical divided by that in the opposite direction, in the common usage) at 2 h, 20 μM in data set [4] amounted to 5.8.

With polyvinylpyrrolidone [PVP], the “increase in silymarin solubility” value in data set [3] was “highest increase”.

Consider Lucifer yellow [reference compound], for which, in the data set with rat jejunal segments (intestinal segment of APAP-induced hepatotoxic rats), the “Papp,AB of Lucifer yellow” value came out at 0.28 ×10⁻⁶ cm/s.

Take pluronic F127: the “increase in silymarin solubility” value in data set [3] was 2~3 fold.

As to Poloxamer 407, the “increase in silymarin solubility” value in data set [3] was 2~3 fold.
